Structures can show the parent of a compound that is named as a salt.
Target: CCR4 (Homo sapiens (Human), UniProt P51679)
Assay: Calcium mobilization (Ca Flux) assay
Format: cell-based
Protocol: Calcium Mobilization Assay. Calcium mobilization experiments may be performed by labeling the human T-cell line CEM with […] dye (45 min at room temperature), washing with PBS, and re-suspending into flux buffer (HBSS with 1% FBS).

Chain of CCR4 (P51679 whole entry): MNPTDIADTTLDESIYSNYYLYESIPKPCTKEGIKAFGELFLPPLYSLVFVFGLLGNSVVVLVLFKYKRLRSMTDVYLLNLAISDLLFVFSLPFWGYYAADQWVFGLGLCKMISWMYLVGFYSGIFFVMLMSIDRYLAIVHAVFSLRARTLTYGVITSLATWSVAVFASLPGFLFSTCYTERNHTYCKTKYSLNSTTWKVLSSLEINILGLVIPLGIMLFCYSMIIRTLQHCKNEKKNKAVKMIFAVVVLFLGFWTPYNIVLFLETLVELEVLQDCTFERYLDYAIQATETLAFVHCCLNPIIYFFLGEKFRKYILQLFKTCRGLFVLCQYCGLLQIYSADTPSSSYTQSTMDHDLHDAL

Row | SMILES | IC50 [µM]
1 | Cc1nn([C@H](C)c2ccc(Cl)cc2Cl)c2nc(C3=CCC(N4CCC[C@H]4CCC(N)=O)[C@H](C)C3)cnc12 (stereo partly drawn) [Example 77, 3-((S)-1-((1S,6R)-4-(1-((R)-1-(2,4-Dichlorophenyl)ethyl)-3-methyl-1H-pyrazolo[3,4-b]pyrazin-6-yl)-6-methylcyclohex-3-en-1-yl)pyrrolidin-2-yl)propanamide 2,2,2-trifluoroacetae] | < 0.1
2 | C[C@@H]1CN(c2cnc3c(C#N)nn([C@H](C)c4ccc(Cl)cc4Cl)c3n2)CC[C@@H]1N1CCC[C@@H](CC(=O)O)C1 [Example 39, 2-((3S,3′R,4′S)-1′-(3-Cyano-1-((R)-1-(2,4-dichlorophenyl)ethyl)-1H-pyrazolo[3,4-b]pyrazin-6-yl)-3′-methyl-[1,4′-bipiperidin]-3-yl)acetic acid formate] | 0.1 to 0.5
3 | Cc1nn([C@H](C)c2ccc(Cl)cc2Cl)c2nc(N3CC[C@H](N4CCC[C@@H](CC(=O)O)C4)[C@H](C)C3)cnc12 [Example 38, 2-((3S,3′R,4′S)-1′-(1-((R)-1-(2,4-Dichlorophenyl)ethyl)-3-methyl-1H-pyrazolo[3,4-b]pyrazin-6-yl)-3′-methyl-[1,4′-bipiperidin]-3-yl)acetic acid formate] | 0.1 to 0.5
4 | Cc1nn([C@H](C)c2ccc(Cl)cc2Cl)c2nc(C3=CCC(N4CCC[C@H]4CO)C(C)C3)cnc12 (stereo partly drawn) [Example 78, ((2S)-1-(4-(1-((R)-1-(2,4-Dichlorophenyl)ethyl)-3-methyl-1H-pyrazolo[3,4-b]pyrazin-6-yl)-6-methylcyclohex-3-en-1-yl)pyrrolidin-2-yl)methanol] | < 0.1
5 | Cc1nn([C@H](C)c2ccc(Cl)cc2Cl)c2nc(N3CC[C@H](N4CCC[C@H]4C)[C@H](C)C3)cnc12 [Example 20, 1-((R)-1-(2,4-Dichlorophenyl)ethyl)-3-methyl-6-((3R,4S)-3-methyl-4-((R)-2-methylpyrrolidin-1-yl)piperidin-1-yl)-1H-pyrazolo[3,4-b]pyrazine hydrochloride] | < 0.1
6 | C[C@H](c1ccc(Cl)cc1Cl)n1nc(C#N)c2ncc(N3CC[C@H](N4CCC[C@H]4C(=O)O)[C@H](C(C)(C)O)C3)nc21 [Example 64, ((3R,4S)-1-(3-Cyano-1-((R)-1-(2,4-dichlorophenyl)ethyl)-1H-pyrazolo[3,4-b]pyrazin-6-yl)-3-(2-hydroxypropan-2-yl)piperidin-4-yl)-L-proline hydrochloride] | > 0.5
7 | Cc1nn([C@H](C)c2ccc(Cl)cc2Cl)c2nc(N3CCC(N4CCC[C@H]4C(C)CC(=O)O)C(C)C3)cnc12 (stereo partly drawn) [Example 60, 3-((2S)-1-(1-(1-((R)-1-(2,4-Dichlorophenyl)ethyl)-3-methyl-1H-pyrazolo[3,4-b]pyrazin-6-yl)-3-methylpiperidin-4-yl)pyrrolidin-2-yl)butanoic acid 2,2,2-trifluoroacetate] | 0.1 to 0.5
8 | Cc1nn([C@H](C)c2ccc(Cl)cc2Cl)c2nc(N3CCC(N4CCC[C@@H]4C)C(C)C3)cnc12 (stereo partly drawn) [Example 21, 1-((R)-1-(2,4-Dichlorophenyl)ethyl)-3-methyl-6-(3-methyl-4-((S)-2-methylpyrrolidin-1-yl)piperidin-1-yl)-1H-pyrazolo[3,4-b]pyrazine hydrochloride] | > 0.5
9 | CC1CC(c2cnc3c(C#N)nn([C@H](C)c4ccc(Cl)cc4Cl)c3n2)=CCC1N1CCC[C@H]1C(N)=O (stereo partly drawn) [Example 79, (2S)-1-(4-(3-Cyano-1-((R)-1-(2,4-dichlorophenyl)ethyl)-1H-pyrazolo[3,4-b]pyrazin-6-yl)-6-methylcyclohex-3-en-1-yl)pyrrolidine-2-carboxamide hydrochloride] | < 0.1
10 | C[C@@H]1CN(c2cnc3c(C#N)nn([C@H](C)c4ccc(Cl)cc4Cl)c3n2)CC[C@@H]1N1CCC[C@H]1CCC(N)=O [Example 48, 3-((S)-1-((3R,4S)-1-(3-Cyano-1-((R)-1-(2,4-dichlorophenyl)ethyl)-1H-pyrazolo[3,4-b]pyrazin-6-yl)-3-methylpiperidin-4-yl)pyrrolidin-2-yl)propanamide 2,2,2-trifluoroacetate] | < 0.1
11 | C[C@@H]1CN(c2cnc3c(C#N)nn([C@H](C)c4ccc(Cl)cc4Cl)c3n2)CC[C@@H]1N1CCC[C@H]1CO [Example 33, 1-((R)-1-(2,4-Dichlorophenyl)ethyl)-6-((3R,4S)-4-((S)-2-(hydroxymethyl)pyrrolidin-1-yl)-3-methylpiperidin-1-yl)-1H-pyrazolo[3,4-b]pyrazine-3-carbonitrile hydrochloride] | < 0.1
12 | C[C@@H]1CC(c2cnc3c(C#N)nn([C@H](C)c4ccc(Cl)cc4Cl)c3n2)=CCC1N1CCC[C@H]1C(O)CS(C)(=O)=O (stereo partly drawn) [Example 87, 1-((R)-1-(2,4-Dichlorophenyl)ethyl)-6-((4S,5R)-4-((2S)-2-(1-hydroxy-2-(methylsulfonyl)ethyl)pyrrolidin-1-yl)-5-methylcyclohex-1-en-1-yl)-1H-pyrazolo[3,4-b]pyrazine-3-carbonitrile hydrochloride] | < 0.1
13 | CC1CCCCN1C1CCN(c2cnc3c(C(N)=O)nn(C(C)c4ccc(Cl)cc4Cl)c3n2)CC1 (stereo not shown) [Example 3, 1-(1-(2,4-Dichlorophenyl)ethyl)-6-(2-methyl-[1,4′-bipiperidin]-1′-yl)-1H-pyrazolo[3,4-b]pyrazine-3-carboxamide hydrochloride] | > 0.5
14 | C[C@H](c1ccc(Cl)cc1Cl)n1nc(C#N)c2ncc(N3CC[C@@H](N4CCCCC4)[C@@H](CO)C3)nc21 [Example 28, 1-((R)-1-(2,4-Dichlorophenyl)ethyl)-6-((3′S,4′R)-3′-(hydroxymethyl)-[1,4′-bipiperidin]-1′-yl)-1H-pyrazolo[3,4-b]pyrazine-3-carbonitrile hydrochloride] | 0.1 to 0.5
15 | CC(c1ccc(Cl)cc1Cl)n1nc(C(N)=O)c2ncc(N3CCC(N4CCCCC4)C(F)C3)nc21 (stereo not shown) [Example 25, 1-(1-(2,4-Dichlorophenyl)ethyl)-6-(3′-fluoro-[1,4′-bipiperidin]-1′-yl)-1H-pyrazolo[3,4-b]pyrazine-3-carboxamide hydrochloride] | 0.1 to 0.5
16 | Cc1nn([C@H](C)c2ccc(Cl)cc2Cl)c2nc(N3C[C@@H](C)[C@@H](N4CCCC4)C[C@@H]3C)cnc12 [Example 19, 1-((R)-1-(2,4-Dichlorophenyl)ethyl)-6-((2S,4S,5R)-2,5-dimethyl-4-(pyrrolidin-1-yl)piperidin-1-yl)-3-methyl-1H-pyrazolo[3,4-b]pyrazine hydrochloride] | 0.1 to 0.5
17 | CC1CC(c2cnc3c(C(F)(F)F)nn([C@H](C)c4ccc(Cl)cc4Cl)c3n2)=CCC1N1CCC[C@H]1C (stereo partly drawn) [Example 88, 1-((R)-1-(2,4-Dichlorophenyl)ethyl)-6-(5-methyl-4-((R)-2-methylpyrrolidin-1-yl)cyclohex-1-en-1-yl)-3-(trifluoromethyl)-1H-pyrazolo[3,4-b]pyrazine trifluoroacetic acid] | 0.1 to 0.5
18 | CCOC(=O)c1nn(C(C)c2ccc(Cl)cc2Cl)c2nc(N3CCC(N4CCCCC4)CC3)cnc12 (racemic) [Example 1, Ethyl 6-([1,4′-bipiperidin]-1′-yl)-1-(1-(2,4-dichlorophenyl)ethyl)-1H-pyrazolo[3,4-b]pyrazine-3-carboxylate hydrochloride] | > 0.5
19 | Cc1nn([C@H](C)c2ccc(Cl)cc2Cl)c2nc(N3CCC(N4CCC[C@H]4CCC(=O)O)C[C@@H]3C)cnc12 (mixture of isomers) [Example 50, 3-((2S)-1-((2S)-1-(1-((R)-1-(2,4-Dichlorophenyl)ethyl)-3-methyl-1H-pyrazolo[3,4-b]pyrazin-6-yl)-2-methylpiperidin-4-yl)pyrrolidin-2-yl)propanoic acid 2,2,2-trifluoroacetate] | > 0.5

Reference: US10246462B2, “Chemokine receptor modulators and uses thereof” (FLX Bio, Inc., priority 2016, dated 2019)
